Measurements from publication PMC3554599, “Hydrophobic analogues of rhodamine B and rhodamine 101: potent fluorescent probes of mitochondria in living C. elegans” (Beilstein Journal of Organic Chemistry, 2012).
Like-named read-outs stand apart in the source and are kept apart here.

Experiments:
[1] = octanol/neutral buffer, cited from earlier work
[2] = tested on: mitochondria in living C. elegans; experiment: Confocal laser scanning microscopy of living adult C. elegans treated with fluorophores; format: in vivo; conditions: for selectivity of intracellular staining: living C. elegans; for bioaccumulation among the fluorophores examined: 100 pM or 1 nM, 20× objective; for time to observable fluorescence in some animals / time until most animals became fluorescent: living adult C. elegans
[3] = MeOH; cited from earlier work
[4] = log D by fluorescence-based shake-flask method, octanol/phosphate buffer pH 7.4; format: physicochemical; conditions: for enhanced partitioning into octanol compared with aqueous buffer, relative to parent compound: methyl analogue vs parent rhodamine B / rhodamine 101; for logD: octanol/phosphate buffer (1:1), octanol/buffer pH 7.4, fluorescence-based shake-flask, 24 h, 25 °C
Procedure: Values of log D were measured by dissolution of solids in 1:1 octanol/phosphate buffer (4 mL total volume, 5 mM phosphate, pH 7.4) to provide 5 mM solutions of the fluorophore. Samples were shaken for 24 h at 25 °C to equilibrate. […] Aliquots of these fractions were diluted in octanol (derived from the top fraction) or buffer (derived bottom fraction) to generate stock solutions (10×) appropriate for analysis. These stock solutions were further diluted 10-fold and analyzed in a solvent mixture comprising ethanol (80%), octanol (10%), and phosphate buffer (10%, pH 7.4). The ratio of fluorescence emission at λmax was used to calculate log D.

[5] = Quantum yield by the method of Williams in MeOH; format: physicochemical; conditions: relative to rhodamine B and rhodamine 6G
Procedure: (§1) The red-shifted spectra of HR101 10 compared with HRB 9 can be explained by greater delocalization of the lone pairs on nitrogen due to restricted rotation about C–N bonds conferred by the fused rings of 10. By using the method of Williams, the quantum yields of 9 and 10 were determined relative to rhodamine B (5) and rhodamine 6G (7, Figure 3, panels A and B), and the extinction coefficients of these compounds were quantified (Figure 3, panel C). The replacement of the carboxylate of rhodamine B (5) and rhodamine 101 (8) with a methyl group slightly red shifted the absorbance and emission spectra in methanol (5 nm and 8 to 9 nm, respectively). […] Additionally, a modest reduction in quantum yield of ~0.3 for both fluorophores was observed.
(§2) Figure 3 Linear regression used to determine spectroscopic parameters of HRB 9 and HR101 10 in MeOH. Panels A and B: Determination of quantum yields relative to rhodamine B (5) and rhodamine 6G (7). Panel C: Quantification of molar extinction coefficients. TEXT PRINTED IN THE PICTURE: (A) RhB 5: Φ = 0.69 | (A) Rh6G 7: Φ = 0.93 | (B) HRB 9: Φ = 0.39 | (B) HR101 10: Φ = 0.60 | (C) HRB 9: ε555 nm = 83,000 M^-1 cm^-1 | (C) HR101 10: ε576 nm = 107,000 M^-1 cm^-1

[6] = Molar extinction coefficient by linear regression of absorbance; format: physicochemical
Procedure: as §1, §2

C. elegans = conditions: N2, C. elegans, in vivo, 2 h
[7] = design: method as in PMID 15571431; conditions: 545 nm in ethanol; cited from earlier work

**Q.** Which results are given for `COC(=O)c1ccccc1-c1c2ccc(=N)cc-2oc2cc(N)ccc12` [Rhodamine 123 (4), rhodamine 123]?
**A.** log D octanol/buffer ([1]; listed as rhodamine 123 (4)): −0.62; log D octanol/buffer ([1]; ref 9): −0.6; log D octanol/buffer ([1]; ref 37): 0.5

**Q.** With `CC/N=c1\cc2oc3cc(NCC)c(C)cc3c(-c3ccccc3C(=O)OCC)c-2cc1C` [Rhodamine 6G (7), rhodamine 6G] as the molecule, how does the “selectivity of intracellular staining” value ([2]; 2 h) read?
**A.** The value was “most specific mitochondrial stains”.

**Q.** And the “log D octanol/buffer” value ([1]; ref 37)?
**A.** The value was 2.1 [37].

**Q.** What about the “quantum yield Φ (standard)” value [3] of the same molecule?
**A.** Its value is 0.93.

**Q.** For `Cc1ccccc1C1=c2cc3c4c(c2Oc2c1cc1c5c2CCCN5CCC1)CCC[N+]=4CCC3` [HR101 10, 16-(2-Methylphenyl)-3-oxa-9,23-diazaheptacyclo[17.7.1.1^{5,9}.0^{2,17}.0^{4,15}.0^{23,27}.0^{13,28}]octacosa-1(27),2(17),4,9(28),13,15,18-heptaen-9-ium], which “enhanced partitioning into octanol compared with aqueous buffer, relative to parent compound” value [4] is on record?
**A.** The value was ≥ 10 fold.

**Q.** What about the logD [4] of the same molecule?
**A.** The logD was 6.2.

**Q.** What about the “bioaccumulation among the fluorophores examined” value ([2]; 2 h) of the same molecule?
**A.** Its value is “highest bioaccumulation”.

**Q.** What about the “selectivity of intracellular staining” value ([2]; 2 h) of the same molecule?
**A.** The value was “most specific mitochondrial stains”.

**Q.** What about the “time to observable fluorescence in some animals” value [2] of the same molecule?
**A.** Its value is ≤ 30 min.

**Q.** And the “time until most animals became fluorescent” value [2]?
**A.** Its value is ≤ 2 h.

**Q.** And the “quantum yield Φ” value [5]?
**A.** The value was 0.60.

**Q.** What about the “molar extinction coefficient ε576 nm” value ([6]; 576 nm in MeOH) of the same molecule?
**A.** The value was 107,000 M^-1 cm^-1.

**Q.** What about the “concentration conferring some toxicity” value (C. elegans) of the same molecule?
**A.** The value was ≥ 1000 µM.

**Q.** With `CCOC(=O)c1ccccc1-c1c2ccc(=[N+](CC)CC)cc-2oc2cc(N(CC)CC)ccc12` [Basic Violet 11 (6), basic violet 11, reference compound] as the molecule, how does the “bioaccumulation among the fluorophores examined” value ([2]; 2 h) read?
**A.** Its value is “highest bioaccumulation”.

**Q.** What about the “selectivity of intracellular staining” value ([2]; 2 h) of the same molecule?
**A.** The value was “low selectivity”.

**Q.** For `O=C([O-])c1ccccc1C1=c2cc3c4c(c2Oc2c1cc1c5c2CCCN5CCC1)CCC[N+]=4CCC3` [Rhodamine 101 (8), rhodamine 101], which logD [4] is on record?
**A.** The logD was 5.2.

**Q.** And the “penetration into germline, cells and tissues” value ([2]; 60× objective, 2 h, rhodamine 101 at 100-fold higher concentration than HRB 9 and HR101 10)?
**A.** Its value is “did not penetrate into the germline”.

**Q.** What does the source list for `CCN(CC)c1ccc2c(-c3ccccc3C)c3ccc(=[N+](CC)CC)cc-3oc2c1` [HRB 9, 6-(Diethylamino)-N,N-diethyl-9-(2-methylphenyl)-3H-xanthen-3-imine]?
**A.** enhanced partitioning into octanol compared with aqueous buffer, relative to parent compound [4]: ≥ 10 fold; logD [4]: 5.9; bioaccumulation among the fluorophores examined ([2]; 2 h): highest bioaccumulation; selectivity of intracellular staining ([2]; 2 h): most specific mitochondrial stains; time to observable fluorescence in some animals [2]: ≤ 30 min; time until most animals became fluorescent [2]: ≤ 2 h; quantum yield Φ [5]: 0.39; molar extinction coefficient ε555 nm ([6]; 555 nm in methanol): 83,000 M^-1 cm^-1; concentration conferring some toxicity (C. elegans): ≥ 1000 µM

**Q.** With rhodamine B [Rhodamine B (5)] as the molecule, how does the “log D octanol/buffer” value ([1]; ref 46) read?
**A.** The value was 2.3 [46].

**Q.** What about the “quantum yield Φ (standard)” value [3] of the same molecule?
**A.** The value was 0.69.

**Q.** And the molar extinction coefficient [7]?
**A.** The molar extinction coefficient was 106,000 M^−1 cm^−1.
